This is an account of results in patent US7981883B2, “Substituted spiro-compounds and the use thereof for producing medicaments” (Gruenenthal GmbH, priority 2005, dated 2011).

One assay addresses T1, VR1 (human) (Homo sapiens, UniProt Q8NER1).
T1 construct: expressed in transfected cells; host or cells: CHO K1 cells (ECACC)
Briefly: Functional FLIPR Ca2+ inflow assay on VR1 (human), CHO K1 cells stably transfected with the VR1 gene. Format: cell-based. Conditions: test compound 10 μM; for inhibition at 10 µM / activation at 10 µM: CHO-K1; for inhibition at 10 µM / VR1 (human) (% inhibition compared to 10 μM CP): then 100 nM capsaicin after 5 min, relative to maximum inhibition with 10 μM capsaicin; for inhibition at 10 µM: read-out: VR1 (human) (% inhibition compared to 10 μM CP); for activation at 10 µM / VR1 (human) (% stimulation compared to 10 μM CP): Ca2+ signal relative to 10 μM capsaicin (CP); for activation at 10 µM: read-out: VR1 (human) (% stimulation compared to 10 μM CP). An excerpt: II. Functional Testing Carried Out on the Vanilloid Receptor (VR1)
The agonistic or antagonistic effect of the substances to be tested can also be determined on the vanilloid receptor (VR1) using the following assay. According to this assay, the Ca^2+ inflow is quantified through the channel using a Ca^2+-sensitive dye (type Fluo-4, Molecular Probes Europe BV, Leiden, Netherlands) in a fluorescent imaging plate reader (FLIPR, Molecular Devices, Sunnyvale, USA).
Chinese hamster ovary cells (CHO K1 cells, European Collection of Cell Cultures (ECACC) United Kingdom) were stably transfected with the VR1 gene. For functional testing, these cells were plated out on poly-D-lysine-coated black 96 well plates having a clear base (BD Biosciences, Heidelberg, Germany) at a density of 25,000 cells/well. The cells were incubated overnight at 37° C. and 5% CO2 in a culture medium (Ham's F12 nutrient mixture, 10% by volume of FCS (foetal calf serum), 18 μg/ml L-proline). The next day the cells were incubated with Fluo-4 (Fluo-4 2 μM, 0.01% by volume of Pluronic F127, Molecular Probes in HBSS (Hank's buffered saline solution), Gibco Invitrogen GmbH, Karlsruhe, Germany) for 30 minutes at 37° C. Subsequently, the plates were washed three times with HBSS buffer and after further incubation for 15 minutes at room temperature used for Ca^2+ measurement in a FLIPR assay. The Ca^2+-dependent fluorescence was measured before and after the addition of the substances to be tested (λex wavelength=488 nm, λem=540 nm). Quantification was carried out by measuring the highest fluorescence intensity (FC, Fluorescence Counts) over time.
The FLIPR protocol consists of 2 substance additions. First the compounds to be tested (10 μM) were pipetted onto the cells and the Ca^2+ inflow was compared with the control (capsaicin 10 μM) (% activation based on the Ca^2+ signal after the addition of 10 μM capsaicin). After 5 minutes' incubation, 100 nM of capsaicin were administered and the Ca^2+ inflow was also determined.
Desensitising agonists and antagonists led to suppression of the Ca^2+ inflow. The % inhibition was calculated compared to the maximum achievable inhibition with 10 μM of capsaicin.

The target of another assay is T2, VR1 (rat) (Rattus norvegicus, UniProt O35433).
T2 construct: from tissue; host or cells: primary cells dissociated from rat dorsal root ganglia
Nature of the assay: Functional FLIPR Ca2+ inflow assay on rat-species vanilloid receptor 1 in rat dorsal root ganglia cells. The format is cell-based. Particulars: test compound 10 μM; for inhibition at 10 µM / VR1 (rat) (% inhibition compared to 10 μM CP): then 100 nM capsaicin after 5 min, relative to maximum inhibition with 10 μM capsaicin; for inhibition at 10 µM: read-out: VR1 (rat) (% inhibition compared to 10 μM CP); for activation at 10 µM / VR1 (rat) (% stimulation compared to 10 μM CP): Ca2+ signal relative to 10 μM capsaicin (CP); for activation at 10 µM: read-out: VR1 (rat) (% stimulation compared to 10 μM CP). From the text: I. Functional Testing Carried Out on the Vanilloid Receptor 1 (VR1/TRPV1 Receptor)
The agonistic or antagonistic effect of the substances to be tested can be determined on the rat-species vanilloid receptor 1 (VR1/TRPV1) using the following assay. According to this assay, the Ca^2+ inflow is quantified through the receptor channel using a Ca^2+-sensitive dye (type Fluo-4, Molecular Probes Europe BV, Leiden, Netherlands) in a fluorescent imaging plate reader (FLIPR, Molecular Devices, Sunnyvale, USA).
Complete medium: 50 mL HAMS F12 nutrient mixture (Gibco Invitrogen GmbH, Karlsruhe, Germany) with
10% by volume of FCS (foetal calf serum, Gibco Invitrogen GmbH, Karlsruhe, Germany, […]);
2 mM L-glutamine (Sigma, Munich, Germany);
1% by weight of AA solution (antibiotic/antimyotic solution, PAA, Pasching, Austria) and 25 ng/ml NGF medium (2.5 S, Gibco Invitrogen GmbH, Karlsruhe, Germany)
Cell culture plate: Poly-D-lysine-coated, black 96 well plates having a clear base (96 well black/clear plate, BD Biosciences, Heidelberg, Germany) were additionally coated with laminin (Gibco Invitrogen GmbH, Karlsruhe, Germany), the laminin being diluted with PBS (Ca—Mg-free PBS, Gibco Invitrogen GmbH, Karlsruhe, Germany) to a concentration of 100 μg/mL. Aliquots having a laminin concentration of 100 μg/mL were removed and stored at −20° C. The aliquots were diluted with PBS in a ratio of 1:10 to 10 μg/mL laminin and in each case 50 μL of the solution were pipetted into a recess in the cell culture plate. The cell culture plates were incubated for at least two hours at 37° C., the excess solution was removed by suction-filtration and the recesses were each washed twice with PBS. The coated cell culture plates were stored with excess PBS which was not removed until just before the feeding of the cells.
The vertebral column was removed from decapitated rats and placed immediately into cold HBSS buffer (Hank's buffered saline solution, Gibco Invitrogen GmbH, Karlsruhe, Germany), i.e. buffer located in an ice bath, mixed with 1% by volume (percent by volume) of an AA solution (antibiotic/antimyotic solution, PAA, Pasching, Austria). The vertebral column was cut longitudinally and removed together with fasciae from the vertebral canal. Subsequently, the dorsal root ganglia (DRG) were removed and again stored in cold HBSS buffer mixed with 1% by volume of an AA solution. The DRG, from which all blood remnants and spinal nerves had been removed, were transferred in each case to 500 μL of cold type 2 collagenase (PAA, Pasching, Austria) and incubated for 35 minutes at 37° C. After the addition of 2.5% by volume of trypsin (PAA, Pasching, Austria), incubation was continued for 10 minutes at 37° C. After complete incubation, the enzyme solution was carefully pipetted off and 500 μL of complete medium were added to each of the remaining DRG. The DRG were in each case suspended several times, drawn through cannulae No. 1, No. 12 and No. 16 using a syringe and transferred to a 50 mL Falcon tube which was filled up to 15 mL with complete medium. The contents of each Falcon tube was in each case filtered through a 70 μm Falcon filter element and centrifuged for 10 minutes at 1,200 rpm and room temperature. The resulting pellet was in each case taken up in 250 μL of complete medium and the number of cells determined.
The number of cells in the suspension was set to 3×10^5 per mL and 150 μL of this suspension were in each case introduced into a recess in the cell culture plates coated as described hereinbefore. In the incubator the plates were left for two to three days at 37° C., 5% by volume of CO2 and 95% relative humidity. […]

SMILES strings stand for the structures.

T2 sequence (O35433 whole entry): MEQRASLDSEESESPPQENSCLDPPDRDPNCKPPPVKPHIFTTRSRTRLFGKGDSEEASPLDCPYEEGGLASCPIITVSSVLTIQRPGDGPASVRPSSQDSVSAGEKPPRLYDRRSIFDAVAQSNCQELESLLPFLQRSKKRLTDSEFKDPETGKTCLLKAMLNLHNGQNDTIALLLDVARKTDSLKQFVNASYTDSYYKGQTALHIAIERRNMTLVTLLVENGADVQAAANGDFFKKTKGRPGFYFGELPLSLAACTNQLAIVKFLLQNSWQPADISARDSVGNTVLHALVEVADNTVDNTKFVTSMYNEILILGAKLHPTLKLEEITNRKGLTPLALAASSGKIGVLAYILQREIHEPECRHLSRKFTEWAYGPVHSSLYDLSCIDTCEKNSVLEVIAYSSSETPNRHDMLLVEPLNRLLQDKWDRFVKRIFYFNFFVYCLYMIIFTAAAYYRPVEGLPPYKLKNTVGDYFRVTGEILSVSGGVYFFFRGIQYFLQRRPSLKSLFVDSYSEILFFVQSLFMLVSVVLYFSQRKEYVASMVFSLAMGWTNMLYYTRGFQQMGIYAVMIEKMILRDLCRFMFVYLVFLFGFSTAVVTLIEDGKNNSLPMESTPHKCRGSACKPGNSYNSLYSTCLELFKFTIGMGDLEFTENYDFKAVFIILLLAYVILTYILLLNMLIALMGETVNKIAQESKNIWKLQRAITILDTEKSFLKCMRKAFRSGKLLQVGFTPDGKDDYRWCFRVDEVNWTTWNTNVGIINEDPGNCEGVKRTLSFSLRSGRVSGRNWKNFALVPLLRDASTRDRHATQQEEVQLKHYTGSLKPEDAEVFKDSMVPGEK
T1 sequence (Q8NER1 whole entry): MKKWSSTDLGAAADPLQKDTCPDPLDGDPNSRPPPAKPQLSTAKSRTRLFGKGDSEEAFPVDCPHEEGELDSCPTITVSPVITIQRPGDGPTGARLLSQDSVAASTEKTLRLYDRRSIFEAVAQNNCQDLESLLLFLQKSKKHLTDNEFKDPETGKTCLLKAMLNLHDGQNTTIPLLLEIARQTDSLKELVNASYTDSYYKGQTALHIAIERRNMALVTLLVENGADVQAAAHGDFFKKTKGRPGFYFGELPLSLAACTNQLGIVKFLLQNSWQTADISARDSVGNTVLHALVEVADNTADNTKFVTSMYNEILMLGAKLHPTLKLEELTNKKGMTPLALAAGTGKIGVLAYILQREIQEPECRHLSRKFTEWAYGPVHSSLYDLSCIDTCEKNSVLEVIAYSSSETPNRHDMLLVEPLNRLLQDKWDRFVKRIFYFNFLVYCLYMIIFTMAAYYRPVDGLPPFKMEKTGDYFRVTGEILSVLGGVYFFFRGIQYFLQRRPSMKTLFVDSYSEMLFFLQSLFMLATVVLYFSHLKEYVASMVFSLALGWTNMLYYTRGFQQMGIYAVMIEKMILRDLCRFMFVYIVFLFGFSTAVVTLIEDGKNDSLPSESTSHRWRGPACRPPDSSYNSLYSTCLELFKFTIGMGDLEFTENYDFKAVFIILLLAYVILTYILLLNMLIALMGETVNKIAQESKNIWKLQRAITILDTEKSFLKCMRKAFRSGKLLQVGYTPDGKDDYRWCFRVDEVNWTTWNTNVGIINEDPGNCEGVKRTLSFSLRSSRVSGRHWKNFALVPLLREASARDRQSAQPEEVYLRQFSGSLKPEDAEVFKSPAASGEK

Regarding `CC(C)(C)C1CCC2(CC1)CC(C(=O)NCc1ccc(N)cc1)=NO2` (centres unmarked) [Example 1, 8-tert-butyl-1-oxa-2-azaspiro[4.5]dec-2-ene-3-carboxylic acid-4-aminobenzylamide], at VR1 (human), the inhibition (usually the percentage by which the read-out fell short of the control) at 10 µM was 23.6% and the activation at 10 µM was determined as 20.7%. Moreover, at VR1 (rat), the inhibition at 10 µM turned out to be 71.3% and the activation at 10 µM was determined as 44.7%.

In the case of `CC(C)(C)C1CCC2(CC1)CC(C(=O)NCc1ccc(NS(C)(=O)=O)cc1)=NO2` (stereo not drawn) [Example 2, trans-8-tert-butyl-1-oxa-2-azaspiro[4.5]dec-2-ene-3-carboxylic acid-4-methanesulphonylaminobenzylamide], on VR1 (human), the “VR1 (human) (% inhibition compared to 10 μM CP)” value came to 58.09% and the “VR1 (human) (% stimulation compared to 10 μM CP)” value is on record as −0.32%. Besides, at VR1 (rat), the “VR1 (rat) (% inhibition compared to 10 μM CP)” value is 100.87% and the “VR1 (rat) (% stimulation compared to 10 μM CP)” value is on record as −15.97%.

Regarding `CC(C)(C)C1CCC2(CC1)CC(C(=O)NCc1ccc(NS(C)(=O)=O)cc1)=NO2` (stereo not drawn) [Example 3, cis-8-tert-butyl-1-oxa-2-azaspiro[4.5]dec-2-ene-3-carboxylic acid-4-methanesulphonylaminobenzylamide], on VR1 (human), the “VR1 (human) (% inhibition compared to 10 μM CP)” value turned out to be 80.10% and the “VR1 (human) (% stimulation compared to 10 μM CP)” value is −1.29%. Further, at VR1 (rat), the “VR1 (rat) (% inhibition compared to 10 μM CP)” value was found to be 102.62% and the “VR1 (rat) (% stimulation compared to 10 μM CP)” value is recorded as 0.10%.

In the case of `CC(C)(C)C1CCC2(CC1)CC(C(=O)Nc1cccc3cnccc13)=NO2` (centres unmarked) [Example 4, 8-tert-butyl-1-oxa-2-azaspiro[4.5]dec-2-ene-3-carboxylic acid isoquinolin-5-ylamide], on VR1 (human), the inhibition at 10 µM is 76.3% and the activation at 10 µM was -0.33%. In addition, on VR1 (rat), the inhibition at 10 µM was determined as 73.7% and the activation at 10 µM was -0.54%.

On to `CC(C)(C)[C@H]1CC[C@]2(CC1)CC(C(=O)N1CCN(c3ncccc3C(F)(F)F)CC1)=NO2` [Example 8, trans-(8-tert-butyl-1-oxa-2-azaspiro[4.5]dec-2-en-3-yl)-[4-(3-trifluoromethylpyridin-2-yl)piperazin-1-yl]methanone], for which, at VR1 (human), the “VR1 (human) (% inhibition compared to 10 μM CP)” value was determined as 20.73% and the “VR1 (human) (% stimulation compared to 10 μM CP)” value worked out at 0.22%. On VR1 (rat), the “VR1 (rat) (% inhibition compared to 10 μM CP)” value amounted to 97.15% and the “VR1 (rat) (% stimulation compared to 10 μM CP)” value is 0.57%.

In the case of `CC(C)(C)[C@H]1CC[C@]2(CC1)CC(C(=O)N1CCN(c3ccc(O)cc3)CC1)=NO2` [Example 10, trans-(8-tert-butyl-1-oxa-2-azaspiro[4.5]dec-2-en-3-yl)-[4-(4-hydroxyphenyl)piperazin-1-yl]methanone], at VR1 (human), the “VR1 (human) (% inhibition compared to 10 μM CP)” value worked out at 17.54% and the “VR1 (human) (% stimulation compared to 10 μM CP)” value amounted to 2.84%. Further, at VR1 (rat), the “VR1 (rat) (% inhibition compared to 10 μM CP)” value stood at 22.95% and the “VR1 (rat) (% stimulation compared to 10 μM CP)” value was determined as 8.77%.

For the compound `CC(C)(C)[C@H]1CC[C@@]2(CC1)CC(C(=O)N1CCN(c3ccc(O)cc3)CC1)=NO2` [Example 11, cis-(8-tert-butyl-1-oxa-2-azaspiro[4.5]dec-2-en-3-yl)-[4-(4-hydroxyphenyl)piperazin-1-yl]methanone], on VR1 (human), the “VR1 (human) (% inhibition compared to 10 μM CP)” value worked out at 28.56% and the “VR1 (human) (% stimulation compared to 10 μM CP)” value was −0.05%. On VR1 (rat), the “VR1 (rat) (% inhibition compared to 10 μM CP)” value was 62.42% and the “VR1 (rat) (% stimulation compared to 10 μM CP)” value is listed as −0.37%.

In the case of `CC(C)(C)C1CCC2(CC1)CC(C(=O)N1CCc3cc(O)c(O)cc3C1)=NO2` (centres unmarked) [Example 12, (8-tert-butyl-1-oxa-2-azaspiro[4.5]dec-2-en-3-yl)-(6,7-dihydroxy-3,4-dihydro-1H-isoquinolin-2-yl)methanone], at VR1 (human), the inhibition at 10 µM worked out at 79.9% and the activation at 10 µM was 101%. In addition, on VR1 (rat), the inhibition at 10 µM is 94.3% and the activation at 10 µM stood at 112%.

For the compound `CC(C)(C)[C@H]1CC[C@@]2(CC1)CC(C(=O)N1CCN(c3nsnc3Cl)CC1)=NO2` [Example 17, cis-(8-tert-butyl-1-oxa-2-azaspiro[4.5]dec-2-en-3-yl)-[4-(4-chloro-[1,2,5]thiadiazol-3-yl)piperazin-1-yl]methanone], on VR1 (human), the “VR1 (human) (% inhibition compared to 10 μM CP)” value came to 14.95% and the “VR1 (human) (% stimulation compared to 10 μM CP)” value is listed as −0.05%. At VR1 (rat), the “VR1 (rat) (% inhibition compared to 10 μM CP)” value is listed as 58.92% and the “VR1 (rat) (% stimulation compared to 10 μM CP)” value worked out at 0.33%.

As to `COc1cc2c(cc1OC)CN(C(=O)C1=NO[C@]3(CC[C@H](C(C)(C)C)CC3)C1)CC2` [Example 18, trans-(8-tert-butyl-1-oxa-2-azaspiro[4.5]dec-2-en-3-yl)-(6,7-dimethoxy-3,4-dihydro-1H-isoquinolin-2-yl)methanone], at VR1 (human), the “VR1 (human) (% inhibition compared to 10 μM CP)” value is recorded as 22.05% and the “VR1 (human) (% stimulation compared to 10 μM CP)” value is recorded as 24.24%. In addition, on VR1 (rat), the “VR1 (rat) (% inhibition compared to 10 μM CP)” value is listed as 97.62% and the “VR1 (rat) (% stimulation compared to 10 μM CP)” value came to 84.04%.

As for `COc1cc2c(cc1OC)CN(C(=O)C1=NO[C@]3(CC[C@@H](C(C)(C)C)CC3)C1)CC2` [Example 19, cis-(8-tert-butyl-1-oxa-2-azaspiro[4.5]dec-2-en-3-yl)-(6,7-dimethoxy-3,4-dihydro-1H-isoquinolin-2-yl)methanone], on VR1 (human), the “VR1 (human) (% inhibition compared to 10 μM CP)” value is reported as 22.55% and the “VR1 (human) (% stimulation compared to 10 μM CP)” value is on record as 13.41%. At VR1 (rat), the “VR1 (rat) (% inhibition compared to 10 μM CP)” value was 95.49% and the “VR1 (rat) (% stimulation compared to 10 μM CP)” value was determined as 70.81%.
